Source: article PMC3769177 (Bioorganic & medicinal chemistry letters, 2013)

Test system: RD (embryonal) rhabdomyosarcoma cell line
Test: CellTiter-Glo Luminescent Cell Viability Assay, RD cells
Type: cell-based
Details: 48 hours

CN1CCN(CCOc2cc(OC3CCOCC3)c3c(Nc4c(Cl)ccc5c4OCO5)ncnc3c2)CC1 [Saracatinib]
IC50[RD], inhibition of cell survival: did not reach the IC50
